# According to patent US20160052955A1, “[…] INHIBITORS FOR TREATING CANCERS” (SLOAN-KETTERING INSTITUTE FOR CANCER RESEARCH, priority 2013, published 2016):
# pIC50: −log10 of the molar value.
# Assays:
# Format in all cases: biochemical
# PRMT3 (211-531) = biological target: T1, PRMT3 (211-531) (Homo sapiens, UniProt O60678); experiment: Filter-paper methyltransferase assay, PRMT3; settings: substrate RGG, 100 nM enzyme, 3 h; read-out: IC50 PRMT3
# T1 construct: PRMT3 (211-531)
# GLP1 (951-1235) = biological target: T2, GLP1 (951-1235) (Homo sapiens, UniProt Q9H9B1); experiment: Filter-paper methyltransferase assay, GLP1; settings: substrate H3 (1-21 aa), 10 nM enzyme, 1 h
# T2 construct: GLP1 (951-1235)
# T2 sequence (Q9H9B1 982-1266): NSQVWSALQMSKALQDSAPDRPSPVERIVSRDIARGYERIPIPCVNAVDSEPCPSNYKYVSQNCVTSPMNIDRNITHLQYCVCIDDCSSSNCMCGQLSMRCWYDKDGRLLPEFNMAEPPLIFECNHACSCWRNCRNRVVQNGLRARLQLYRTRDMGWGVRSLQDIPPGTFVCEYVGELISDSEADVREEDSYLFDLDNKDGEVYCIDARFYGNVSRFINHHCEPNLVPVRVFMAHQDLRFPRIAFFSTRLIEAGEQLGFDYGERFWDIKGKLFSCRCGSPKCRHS
# Protocol: (§1) Methylation Reaction. The 20 μL methylation reaction was carried out at ambient temperature using two mixtures: A. 10 μl of enzyme mixture in the assay buffer containing 50 mM Hepes (pH=8.0), 0.005% Tween-20, 5 μg/ml BSA and 1 mM TCEP; B. 10 μl of a mixture of […], 0.15 μCi [^3H-Me]-SAM cofactor and 3 μM of the corresponding peptide substrate in the same assay buffer. After A and B were mixed for a designated time period, the reaction mixture was examined with our filter-paper assay.
# (§2) Filter-paper Assay. This assay relies on Whatman P-81 filter paper, which binds peptides but not SAM. Protein Methyl Transferases (PMTs) transfer ^3H-Me of [^3H-Me]-SAM to peptide substrates and the resultant ^3H-methylated, filter-paper-bound peptide is quantified with a scintillation counter. Briefly, 6 μl of the methylation reaction was spotted onto Whatman P-81 phosphocellulose filter paper (1.2×1.2 cm^2) to immobilize the ^3H-labeled peptide. After drying in air for 20 min, the filter paper was immersed into 20 mL of 50 mM Na2CO3/NaHCO3 buffer (pH=9.2), and washed 5 times for 10 min each time. The washed filter paper was then transferred to a 20 ml scintillation vial containing 1 mL of distilled water and 10 mL of Ultima Gold scintillation cocktail or 7 mL scintillation vial containing 0.5 mL od distilled water and 5 mL of scintillation cocktail (PerkinElmer). The radioactivity was quantified by a Beckman LS6000IC liquid scintillation counter.
# (§3) Dose-response Curves and IC50. Twice the PMT concentration was incubated for 10 min with varied concentration of inhibitors (0.1-400 μM stocks), into which 10 μl of the PMT peptide substrate and radioactive cofactor (3 μM of the corresponding peptide and 1.5 μM, 0.15 μCi [^3H-Me]-SAM) were added. After incubating the reaction mixture for the respective reaction time, the conversion was quantified with the filter paper assay as described above. The inhibition was expressed as the percentage between the high control (no inhibition) and the low control (no enzyme) as follows: Percentage Inhibition=[(high control−reading)/(high control−low control)]×100%. Each experiment was performed in triplicate. The IC50 values were obtained by fitting inhibition percentage versus inhibitor concentration using GraphPad Prism5 software.
# DOT1L = DOT1L (Homo sapiens, UniProt Q8TEK3); experiment: Filter-paper methyltransferase assay, DOT1L; settings: for pIC50: substrate nucleosomes, 50 nM enzyme, 6 h
# PRMT1 (10-352) = biological target: T3, PRMT1 (10-352) (Homo sapiens, UniProt Q99873); experiment: Filter-paper methyltransferase assay, PRMT1; settings: 100 nm enzyme, substrate RGG, 1.5 h
# T3 construct: PRMT1 (10-352)
# SMYD2 Full-length = biological target: T4, SMYD2 Full-length (Homo sapiens, UniProt Q9NRG4); experiment: Filter-paper methyltransferase assay, SMYD2; settings: substrate p53 (360-393 aa), 50 nM enzyme, 10 h; read-out: IC50 SMYD2-FL
# T4 construct: SMYD2 Full-length
# Protocol: as §1, §2, §3
# CARM1 (19-608) = biological target: T5, CARM1 (19-608) (Homo sapiens, UniProt Q86X55); experiment: Filter-paper methyltransferase assay, CARM1; settings: for pIC50: substrate H3 (1-40 aa), 300 nM enzyme, 7 h, read-out: IC50 CARM1
# T5 construct: CARM1 (19-608)
# T5 sequence (Q86X55 19-608): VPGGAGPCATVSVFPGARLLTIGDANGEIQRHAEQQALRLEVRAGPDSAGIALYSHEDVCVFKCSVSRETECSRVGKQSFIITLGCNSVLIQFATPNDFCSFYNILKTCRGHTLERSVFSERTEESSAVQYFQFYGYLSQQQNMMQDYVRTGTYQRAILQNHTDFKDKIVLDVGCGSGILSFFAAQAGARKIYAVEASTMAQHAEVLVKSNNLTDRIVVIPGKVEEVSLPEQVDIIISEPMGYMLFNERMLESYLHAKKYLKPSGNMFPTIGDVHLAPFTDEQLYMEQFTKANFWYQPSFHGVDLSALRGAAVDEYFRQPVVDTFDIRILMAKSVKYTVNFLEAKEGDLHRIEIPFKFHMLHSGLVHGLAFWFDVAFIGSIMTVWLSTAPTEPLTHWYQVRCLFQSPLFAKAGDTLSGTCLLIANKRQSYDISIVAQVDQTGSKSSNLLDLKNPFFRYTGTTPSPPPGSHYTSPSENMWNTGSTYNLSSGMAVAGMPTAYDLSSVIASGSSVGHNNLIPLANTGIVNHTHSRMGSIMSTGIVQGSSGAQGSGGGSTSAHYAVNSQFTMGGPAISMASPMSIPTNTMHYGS
# SMYD3 = biological target: T6, SMYD3 (Homo sapiens, UniProt Q9H7B4); experiment: Filter-paper methyltransferase assay, SMYD3; settings: substrate MAP3K2 (1-350 aa), 125 nM enzyme, 2 h
# T6 sequence (Q9H7B4 1-428): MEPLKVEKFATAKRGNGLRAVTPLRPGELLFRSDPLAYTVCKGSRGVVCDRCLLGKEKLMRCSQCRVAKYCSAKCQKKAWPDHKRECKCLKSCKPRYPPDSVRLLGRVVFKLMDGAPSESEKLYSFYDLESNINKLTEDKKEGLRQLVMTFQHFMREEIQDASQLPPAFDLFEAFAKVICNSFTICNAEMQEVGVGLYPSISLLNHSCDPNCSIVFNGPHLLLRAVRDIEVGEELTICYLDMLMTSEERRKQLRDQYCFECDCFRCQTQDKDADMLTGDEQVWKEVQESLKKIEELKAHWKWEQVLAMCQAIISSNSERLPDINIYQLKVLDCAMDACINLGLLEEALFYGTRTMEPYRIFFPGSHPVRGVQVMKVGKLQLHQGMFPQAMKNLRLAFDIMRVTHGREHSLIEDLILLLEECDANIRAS
# Protocol: as §1
# Filter-paper Assay. This assay relies on Whatman P-81 filter paper, which binds peptides but not SAM. Protein Methyl Transferases (PMTs) transfer ^3H-Me of [^3H-Me]-SAM to peptide substrates and the resultant ^3H-methylated, filter-paper-bound peptide is quantified with a scintillation counter. […] The radioactivity was quantified by a Beckman LS6000IC liquid scintillation counter.
# Dose-response Curves and IC50. […] After incubating the reaction mixture for the respective reaction time, the conversion was quantified with the filter paper assay as described above. The inhibition was expressed as the percentage between the high control (no inhibition) and the low control (no enzyme) as follows: Percentage Inhibition=[(high control−reading)/(high control−low control)]×100%. […]
# G9a (913-1913) = biological target: T7, G9a (913-1913) (Homo sapiens, UniProt Q96KQ7); experiment: Filter-paper methyltransferase assay, G9a; settings: substrate H3 (1-21 aa), 20 nM enzyme, 1 h
# T7 construct: G9a (913-1913)
# T7 sequence (Q96KQ7 913-1193 limits assumed): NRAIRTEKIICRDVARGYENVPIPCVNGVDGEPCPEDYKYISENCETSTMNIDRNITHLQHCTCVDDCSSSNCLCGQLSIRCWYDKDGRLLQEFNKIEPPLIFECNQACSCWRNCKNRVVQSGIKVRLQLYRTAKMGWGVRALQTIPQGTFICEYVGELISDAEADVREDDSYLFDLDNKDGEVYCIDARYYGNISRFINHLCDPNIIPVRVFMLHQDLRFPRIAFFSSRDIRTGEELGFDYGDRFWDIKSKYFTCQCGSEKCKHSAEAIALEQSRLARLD
# SUV39H2 (112-410) = biological target: T8, SUV39H2 (112-410) (Homo sapiens, UniProt Q9H5I1); experiment: Filter-paper methyltransferase assay, SUV39H2; settings: substrate H3 (1-21 aa), 5 nM enzyme, 4 h; read-out: IC50 SUV39H2
# T8 construct: SUV39H2 (112-410)
# SETDB1Full-length = biological target: T9, SETDB1Full-length (Homo sapiens, UniProt Q15047); experiment: Filter-paper methyltransferase assay, SETDB1; settings: substrate H3 (1-21 aa), 7.5 nM enzyme, 15 h; read-out: IC50 SETDB1-FL
# T9 construct: SETDB1Full-length
# SET7/9 Full-length = biological target: T10, SET7/9 Full-length (Homo sapiens, UniProt Q8WTS6); experiment: Filter-paper methyltransferase assay, SET7/9; settings: substrate H3 (1-21 aa), 150 nM enzyme, 3 h
# T10 construct: SET7/9 Full-length
# T10 sequence (Q8WTS6 1-366): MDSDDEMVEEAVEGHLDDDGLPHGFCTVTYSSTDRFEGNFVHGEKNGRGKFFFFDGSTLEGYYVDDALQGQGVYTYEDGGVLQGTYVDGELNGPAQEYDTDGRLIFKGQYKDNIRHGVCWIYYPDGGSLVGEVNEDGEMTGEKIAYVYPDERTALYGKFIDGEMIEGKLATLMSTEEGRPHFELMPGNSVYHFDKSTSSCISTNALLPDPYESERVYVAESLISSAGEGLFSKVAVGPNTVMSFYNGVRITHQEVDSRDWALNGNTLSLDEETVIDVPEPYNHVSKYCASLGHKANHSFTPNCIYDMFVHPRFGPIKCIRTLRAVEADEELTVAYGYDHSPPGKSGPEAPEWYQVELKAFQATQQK
# SET8 (191-352) = biological target: T11, SET8 (191-352) (Homo sapiens, UniProt Q9NQR1); experiment: Filter-paper methyltransferase assay, SET8; settings: substrate H4 (10-30 aa), 1000 nM enzyme, 8 h
# T11 construct: SET8 (191-352)
# T11 sequence (Q9NQR1 191-352 isoform Q9NQR1-2): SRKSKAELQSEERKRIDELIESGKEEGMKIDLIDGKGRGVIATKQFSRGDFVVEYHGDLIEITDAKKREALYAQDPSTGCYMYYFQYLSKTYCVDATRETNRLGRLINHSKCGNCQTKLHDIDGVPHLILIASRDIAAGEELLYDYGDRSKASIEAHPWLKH
# SETD2 (1347-1711) = biological target: T12, SETD2 (1347-1711) (Homo sapiens, UniProt Q9BYW2); experiment: Filter-paper methyltransferase assay, SETD2; settings: substrate H3 (20-50 aa), 250 nM enzyme, 4 h
# T12 construct: SETD2 (1347-1711)
# T12 sequence (Q9BYW2 1347-1711): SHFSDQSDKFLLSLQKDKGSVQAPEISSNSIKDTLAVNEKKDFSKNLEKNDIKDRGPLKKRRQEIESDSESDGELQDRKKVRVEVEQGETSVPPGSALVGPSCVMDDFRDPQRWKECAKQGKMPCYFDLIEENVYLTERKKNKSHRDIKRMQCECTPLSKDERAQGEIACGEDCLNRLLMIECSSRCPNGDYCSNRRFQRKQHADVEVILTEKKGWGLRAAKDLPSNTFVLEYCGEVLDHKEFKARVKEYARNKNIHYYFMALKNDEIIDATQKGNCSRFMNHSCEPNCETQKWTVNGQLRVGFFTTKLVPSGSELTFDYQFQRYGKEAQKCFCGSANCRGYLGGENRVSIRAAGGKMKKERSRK
# T3 sequence (Q99873 10-352 isoform Q99873-3): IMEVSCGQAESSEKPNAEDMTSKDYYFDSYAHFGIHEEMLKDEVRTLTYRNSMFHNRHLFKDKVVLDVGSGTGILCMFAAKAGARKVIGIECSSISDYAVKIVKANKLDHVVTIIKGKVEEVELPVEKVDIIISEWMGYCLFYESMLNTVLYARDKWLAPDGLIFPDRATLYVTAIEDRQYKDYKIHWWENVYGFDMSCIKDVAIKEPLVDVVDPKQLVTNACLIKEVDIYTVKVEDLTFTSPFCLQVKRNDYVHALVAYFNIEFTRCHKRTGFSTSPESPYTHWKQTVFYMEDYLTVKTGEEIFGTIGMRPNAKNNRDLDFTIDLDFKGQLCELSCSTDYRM
# Sequence of DOT1L (Q8TEK3 whole entry): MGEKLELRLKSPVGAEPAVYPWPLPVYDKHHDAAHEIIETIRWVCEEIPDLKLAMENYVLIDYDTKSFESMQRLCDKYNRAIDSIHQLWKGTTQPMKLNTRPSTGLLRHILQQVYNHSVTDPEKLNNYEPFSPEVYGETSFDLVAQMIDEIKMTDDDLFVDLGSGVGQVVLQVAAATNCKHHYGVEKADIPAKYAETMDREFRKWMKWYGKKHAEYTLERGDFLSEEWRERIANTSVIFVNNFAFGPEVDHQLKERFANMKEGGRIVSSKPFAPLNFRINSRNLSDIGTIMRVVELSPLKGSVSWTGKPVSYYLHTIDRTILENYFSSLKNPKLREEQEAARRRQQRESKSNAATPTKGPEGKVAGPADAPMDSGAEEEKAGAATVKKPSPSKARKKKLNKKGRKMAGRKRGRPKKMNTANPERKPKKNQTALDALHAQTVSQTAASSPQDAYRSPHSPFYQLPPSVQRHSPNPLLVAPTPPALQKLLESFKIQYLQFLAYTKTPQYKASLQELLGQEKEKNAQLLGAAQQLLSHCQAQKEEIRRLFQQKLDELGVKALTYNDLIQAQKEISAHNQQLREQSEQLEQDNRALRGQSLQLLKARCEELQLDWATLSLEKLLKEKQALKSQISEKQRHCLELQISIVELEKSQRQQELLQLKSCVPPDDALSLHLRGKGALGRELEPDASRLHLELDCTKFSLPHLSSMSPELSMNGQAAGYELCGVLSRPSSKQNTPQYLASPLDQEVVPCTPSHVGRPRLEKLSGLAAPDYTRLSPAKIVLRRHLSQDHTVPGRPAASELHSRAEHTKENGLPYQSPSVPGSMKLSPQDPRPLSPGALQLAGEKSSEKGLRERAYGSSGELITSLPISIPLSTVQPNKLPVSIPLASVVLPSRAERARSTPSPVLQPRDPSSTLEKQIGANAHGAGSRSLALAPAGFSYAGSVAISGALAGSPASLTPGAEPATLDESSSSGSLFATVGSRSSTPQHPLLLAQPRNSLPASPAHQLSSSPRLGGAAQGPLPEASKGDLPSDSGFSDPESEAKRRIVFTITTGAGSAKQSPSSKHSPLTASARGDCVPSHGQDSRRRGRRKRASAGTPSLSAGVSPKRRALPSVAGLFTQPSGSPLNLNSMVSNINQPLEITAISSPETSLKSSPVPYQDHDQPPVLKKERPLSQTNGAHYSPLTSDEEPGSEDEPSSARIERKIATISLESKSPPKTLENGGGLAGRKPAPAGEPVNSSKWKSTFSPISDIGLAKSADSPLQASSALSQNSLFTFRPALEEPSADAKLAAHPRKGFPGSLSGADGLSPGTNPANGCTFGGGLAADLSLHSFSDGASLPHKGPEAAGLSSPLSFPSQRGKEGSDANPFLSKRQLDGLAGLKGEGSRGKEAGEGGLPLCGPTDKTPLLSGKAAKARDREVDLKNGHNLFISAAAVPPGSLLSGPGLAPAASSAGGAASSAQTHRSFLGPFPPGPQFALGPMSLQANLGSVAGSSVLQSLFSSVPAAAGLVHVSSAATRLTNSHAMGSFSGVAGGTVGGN
# T4 sequence (Q9NRG4 whole entry, the tested form may be a part): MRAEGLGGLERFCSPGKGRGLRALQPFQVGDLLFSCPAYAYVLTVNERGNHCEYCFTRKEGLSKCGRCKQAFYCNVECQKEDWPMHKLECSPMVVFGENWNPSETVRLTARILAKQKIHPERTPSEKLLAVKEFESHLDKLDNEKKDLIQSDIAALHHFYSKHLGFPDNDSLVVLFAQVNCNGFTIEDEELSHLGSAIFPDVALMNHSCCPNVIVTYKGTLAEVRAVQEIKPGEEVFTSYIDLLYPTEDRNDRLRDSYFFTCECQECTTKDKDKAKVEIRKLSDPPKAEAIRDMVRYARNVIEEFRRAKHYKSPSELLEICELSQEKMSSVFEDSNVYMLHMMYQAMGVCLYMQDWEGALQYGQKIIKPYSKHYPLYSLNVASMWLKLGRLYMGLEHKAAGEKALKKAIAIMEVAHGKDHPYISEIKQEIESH
# T8 sequence (Q9H5I1 112-410): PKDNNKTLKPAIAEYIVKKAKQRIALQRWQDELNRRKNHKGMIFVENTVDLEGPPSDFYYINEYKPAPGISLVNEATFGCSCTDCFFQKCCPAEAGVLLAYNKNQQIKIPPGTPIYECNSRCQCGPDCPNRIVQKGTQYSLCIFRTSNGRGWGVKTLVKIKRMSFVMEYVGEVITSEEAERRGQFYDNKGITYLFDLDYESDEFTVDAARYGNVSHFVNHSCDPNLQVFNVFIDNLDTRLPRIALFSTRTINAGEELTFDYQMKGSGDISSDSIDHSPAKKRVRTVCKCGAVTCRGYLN
# T1 sequence (O60678 211-531): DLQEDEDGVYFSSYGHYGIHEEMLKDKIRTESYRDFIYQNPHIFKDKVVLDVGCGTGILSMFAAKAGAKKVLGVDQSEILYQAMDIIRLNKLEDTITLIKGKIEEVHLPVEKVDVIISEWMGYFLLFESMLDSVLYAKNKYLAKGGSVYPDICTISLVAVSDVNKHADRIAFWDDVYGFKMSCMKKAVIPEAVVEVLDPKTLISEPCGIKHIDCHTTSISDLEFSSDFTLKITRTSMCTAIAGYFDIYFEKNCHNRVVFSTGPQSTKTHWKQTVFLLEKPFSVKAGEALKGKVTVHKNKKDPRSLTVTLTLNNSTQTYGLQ
pIC50 (PRMT3 (211-531)),pIC50 (GLP1 (951-1235)),inhibitory activity to DOT1L (in words) (DOT1L),pIC50 (DOT1L),pIC50 (PRMT1 (10-352)),pIC50 (SMYD2 Full-length),inhibitory activity to CARM1 (in words) (CARM1 (19-608)),pIC50 (CARM1 (19-608)),pIC50 (SMYD3),pIC50 (G9a (913-1913)),pIC50 (SUV39H2 (112-410)),pIC50 (SETDB1Full-length),pIC50 (SET7/9 Full-length),pIC50 (SET8 (191-352)),pIC50 (SETD2 (1347-1711)),SMILES
< 4.30,< 4.00,remarkable inhibitory activity,7.15,< 4.00,< 4.00,remarkable inhibitory activity,6.14,< 4.00,< 4.00,< 4.00,,,,,CC(C)(C)c1ccc(NC(=O)NCCC[C@H](CN)C[C@H]2O[C@@H](n3cnc4c(N)ncnc43)[C@@H](O)C2O)cc1 (stereo partly drawn) [Example 28]
4.45,< 4.00,remarkable inhibitory activity,6.85,< 4.00,~4.00,remarkable inhibitory activity,7.00,,< 4.00,< 4.00,~4.00,,,,CC(C)(C)c1ccc(NC(=O)NCCC[C@H](N)C[C@H]2O[C@@H](n3cnc4c(N)ncnc43)[C@H](O)[C@@H]2O)cc1 [Example 27]
< 4.30,< 4.00,remarkable inhibitory activity,6.77,< 4.00,< 4.00,remarkable inhibitory activity,> 6.70,< 4.00,< 4.00,~5.00,,< 4.00,< 4.00,< 4.00,CC(C)(C)c1ccc(NC(=O)NCCC[C@H](CNCc2ccccc2)C[C@H]2O[C@@H](n3cnc4c(N)ncnc43)[C@@H](O)C2O)cc1 (stereo partly drawn) [Example 29]
